Structures are written as SMILES.

Chain of human ACC2 (O00763 129-2458): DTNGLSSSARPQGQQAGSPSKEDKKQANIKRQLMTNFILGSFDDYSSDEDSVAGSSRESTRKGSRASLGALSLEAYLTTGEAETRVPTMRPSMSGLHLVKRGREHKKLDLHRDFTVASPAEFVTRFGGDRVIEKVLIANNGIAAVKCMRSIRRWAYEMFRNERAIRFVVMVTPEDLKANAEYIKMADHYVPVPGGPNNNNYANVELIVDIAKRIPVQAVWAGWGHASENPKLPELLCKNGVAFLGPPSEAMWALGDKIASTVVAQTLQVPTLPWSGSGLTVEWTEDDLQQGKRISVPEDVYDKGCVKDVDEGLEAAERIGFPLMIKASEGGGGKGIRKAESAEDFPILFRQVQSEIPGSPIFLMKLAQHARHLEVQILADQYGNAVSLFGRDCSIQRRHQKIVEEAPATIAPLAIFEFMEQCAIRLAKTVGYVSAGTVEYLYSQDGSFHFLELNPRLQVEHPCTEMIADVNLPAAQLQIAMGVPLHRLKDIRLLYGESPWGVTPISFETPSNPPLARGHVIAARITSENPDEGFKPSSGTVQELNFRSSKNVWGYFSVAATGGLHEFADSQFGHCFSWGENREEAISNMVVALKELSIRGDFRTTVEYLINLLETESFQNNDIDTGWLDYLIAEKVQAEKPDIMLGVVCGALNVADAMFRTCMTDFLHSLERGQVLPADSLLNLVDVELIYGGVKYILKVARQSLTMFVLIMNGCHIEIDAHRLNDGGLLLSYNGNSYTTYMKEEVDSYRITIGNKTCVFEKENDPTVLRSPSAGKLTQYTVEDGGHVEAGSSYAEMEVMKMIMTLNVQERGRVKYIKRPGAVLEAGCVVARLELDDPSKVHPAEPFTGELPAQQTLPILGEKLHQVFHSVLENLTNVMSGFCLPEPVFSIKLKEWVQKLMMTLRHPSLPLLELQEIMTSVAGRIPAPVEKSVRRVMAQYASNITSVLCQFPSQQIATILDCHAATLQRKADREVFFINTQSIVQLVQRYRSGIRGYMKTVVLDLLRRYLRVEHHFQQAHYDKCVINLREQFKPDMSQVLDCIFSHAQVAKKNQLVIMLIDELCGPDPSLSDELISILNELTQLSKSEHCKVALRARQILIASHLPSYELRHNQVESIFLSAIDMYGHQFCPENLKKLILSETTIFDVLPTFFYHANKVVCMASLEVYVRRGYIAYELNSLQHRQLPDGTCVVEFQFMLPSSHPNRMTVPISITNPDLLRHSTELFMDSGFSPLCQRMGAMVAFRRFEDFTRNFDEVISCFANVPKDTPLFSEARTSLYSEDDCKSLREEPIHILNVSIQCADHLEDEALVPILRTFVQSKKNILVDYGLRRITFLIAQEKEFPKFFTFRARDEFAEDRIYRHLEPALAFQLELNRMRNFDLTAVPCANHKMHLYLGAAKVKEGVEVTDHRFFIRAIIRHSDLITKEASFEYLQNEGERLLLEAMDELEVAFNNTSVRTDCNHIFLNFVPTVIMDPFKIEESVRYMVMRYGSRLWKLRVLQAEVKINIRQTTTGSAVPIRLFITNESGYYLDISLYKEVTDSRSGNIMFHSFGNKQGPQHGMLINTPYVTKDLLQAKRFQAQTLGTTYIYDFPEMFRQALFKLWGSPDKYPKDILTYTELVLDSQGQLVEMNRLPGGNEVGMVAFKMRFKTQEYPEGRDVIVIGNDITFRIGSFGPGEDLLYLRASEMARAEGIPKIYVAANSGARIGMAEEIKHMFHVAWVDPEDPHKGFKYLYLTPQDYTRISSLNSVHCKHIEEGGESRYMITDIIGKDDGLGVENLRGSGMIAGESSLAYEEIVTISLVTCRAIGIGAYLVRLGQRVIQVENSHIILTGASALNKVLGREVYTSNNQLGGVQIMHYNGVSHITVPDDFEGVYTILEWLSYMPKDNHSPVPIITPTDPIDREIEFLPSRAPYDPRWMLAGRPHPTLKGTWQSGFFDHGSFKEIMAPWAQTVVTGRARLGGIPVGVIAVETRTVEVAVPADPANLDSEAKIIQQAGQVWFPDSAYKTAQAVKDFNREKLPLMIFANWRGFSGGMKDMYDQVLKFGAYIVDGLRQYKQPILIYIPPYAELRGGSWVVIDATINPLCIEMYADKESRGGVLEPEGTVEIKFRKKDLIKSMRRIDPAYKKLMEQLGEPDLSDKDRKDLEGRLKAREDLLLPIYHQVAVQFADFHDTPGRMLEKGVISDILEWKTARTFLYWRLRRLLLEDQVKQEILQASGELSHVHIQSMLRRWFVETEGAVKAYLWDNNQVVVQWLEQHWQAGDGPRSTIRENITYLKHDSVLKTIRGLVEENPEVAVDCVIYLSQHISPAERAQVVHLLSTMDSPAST

For the assay, the target named is human ACC2 (Homo sapiens (Human), UniProt O00763). The assay is described as follows: ACC2 assay, spectrophotometric 384 well assay (NADH-linked, coupled lactate dehydrogenase/pyruvate kinase reaction). Conditions: hACC2 construct lacking the 128 N-terminal amino acids; 25° C., 340 nm over 15 minutes. Format: biochemical. A digest of the protocol:
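Kinetic NADH-linked assay (pyruvate kinase/lactate dehydrogenase coupling) with baculovirus-expressed hACC2 missing its first 128 amino acids. Started with 500 μM ATP and 200 μM each NADH and acetyl-CoA; slope followed 15 min at 25 °C, pH 7.5. No-acetyl-CoA wells define 0%; IC50 by nonlinear regression.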
For `CC(Cc1ccc(C#Cc2ccc(Oc3ccccc3)nc2)cc1)NC(=O)C1CC1` (stereo not shown) [Example 14.43], the half-inhibitory concentration (IC50) is 360 nM. With `CCCOc1cc(C#Cc2ccc(CC(C)NC(=O)C3CC3)cc2)ccn1` (stereo not shown) [Example 14.44] the figure was 360 nM; with `CC(Cc1ccc(C#Cc2ccc(C(C)(C)C)cc2)cc1)NC(=O)C1CC1` (stereo not shown) [Example 14.45], 1000 nM. With `CCC(C)Oc1ccc(C#Cc2ccc(CC(C)NC(=O)C3CC3)cc2)cc1` (stereo not shown) [Example 14.46] the figure was 210 nM; with `CC(Cc1ccc(C#Cc2ccc(OC3CCCC3)cc2)cc1)NC(=O)C1CC1` (stereo not shown) [Example 14.47], 80 nM.

With `CC(C)COc1ccc(C#Cc2ccc([C@H](C)NC(=O)C3CC3)cc2)cc1` [Example 14.48], 580 nM corresponded to half-maximal inhibition (IC50). Next, `CCOc1ccc(C#Cc2ccc([C@H](C)NC(=O)C3CC3)cc2)cc1` [Example 14.49]: 320 nM. On to `CC(=O)NC(C)Cc1ccc(C#Cc2ccc(OC(F)(F)F)cc2)cc1` (stereo not shown) [Example 14.50], for which the IC50 is 1500 nM.

Regarding `CCOc1ccc(C#Cc2ccc(C(C)NC(C)=O)cc2)cc1` (stereo not shown) [Example 14.51], the IC50 is 400 nM.

`CCOc1cccc(C#Cc2ccc(CC(C)NC(=O)C3CC3)cc2)c1` (stereo not shown) [Example 14.52] displayed a half-inhibitory concentration (IC50) of 3800 nM. `CCOc1ccc(C#Cc2ccc(CCC(C)NC(C)=O)cc2)cn1` (stereo not shown) [Example 14.53]: the IC50 was 280 nM. With `CC(=O)NC(C)CCc1ccc(C#Cc2cnc(OC3CCC3)nc2)cc1` (stereo not shown) [Example 14.54] the figure was 240 nM; with `CC(=O)NC(C)Cc1ccc(C#Cc2ccc3c(c2)OCC(C)(C)CO3)cc1` (stereo not shown) [Example 14.55], 120 nM. With `CCOc1ccc(C#Cc2ccc(CCNC(=O)CC)cc2)cc1` [Example 16.1, N-(4-((4-Ethoxyphenyl)ethynyl)phenethyl)propionamide] the figure was 1100 nM. The compound `CCOc1ccc(C#Cc2ccc(CN3CCCC3=O)cc2)cc1` [Example 16.2] showed an IC50 of 3200 nM. With `CCOc1ccc(C#Cc2ccc(CCNC(C)=O)cc2)cc1` [Example 16.3] the figure was 430 nM; with `CCOc1ccc(C#Cc2ccc(CC(C)N(C)C(C)=O)cc2)cc1` (stereo not shown) [Example 18.1, N-{2-[4-(4-Ethoxy-phenylethynyl)-phenyl]-1-methyl-ethyl}-N-methyl-acetamide], 13700 nM; with `CCOc1ccc(C#Cc2ccc(CC(C)N(C)C(=O)CC)cc2)cc1` (stereo not shown) [Example 18.2], 4400 nM. With `COCCOc1cc(C#Cc2ccc(CC(C)NC(C)=O)cc2)ccn1` (stereo not shown) [Example 20.1, N-(2-{4-[2-(2-Methoxy-ethoxy)-pyridin-4-ylethynyl]-phenyl}-1-methyl-ethyl)-acetamide; compound with trifluoro-acetic acid] the figure was 980 nM; with `CCOc1cc(C#Cc2ccc(CC(C)NC(=O)N(C)C)cc2)ccn1` (stereo not shown) [Example 20.2], 600 nM.

In turn, `CC(=O)N[C@@H](C)Cc1ccc(C#Cc2ccc(OC(C)C)cc2)cc1` [Example 23.2] had a 50% inhibitory concentration (IC50) of 130 nM.

For `CC(=O)N[C@@H](C)Cc1ccc(C#Cc2ccc(OCC(C)C)cc2)cc1` [Example 23.3], the 50% inhibitory concentration (IC50) is 400 nM. `CC(=O)N[C@@H](C)Cc1ccc(C#Cc2ccc(C(C)(C)C)cc2)cc1` [Example 23.4] came in with an IC50 of 90 nM. In turn, `CCOc1ccc(C#Cc2ccc(C[C@H](C)NC(C)=O)cc2)cn1` [Example 23.5] showed a concentration for half-maximal inhibition (IC50) of 80 nM. The compound `CCCOc1ccc(C#Cc2ccc(C[C@H](C)NC(C)=O)cc2)cc1` [Example 23.6] registered an IC50 of 70 nM.

`CC(=O)NC(C)Cc1ccc(C#Cc2ccc(-c3cnco3)cc2)cc1` (stereo not shown) [Example 23.7] came in with an IC50 of 1600 nM. Turning to `CCCOc1ccc(C#Cc2ccc(CC(C)NC(C)=O)cc2)nc1` (stereo not shown) [Example 23.8], the IC50 amounted to 180 nM.

Take `CCC(C)Oc1ccc(C#Cc2ccc(CC(C)NC(C)=O)cc2)cc1` (stereo not shown) [Example 23.9]: half-maximal inhibition (IC50) was put at 140 nM.

The compound `CSc1ccc(C#Cc2ccc(CC(C)NC(C)=O)cc2)cc1` (stereo not shown) [Example 23.10] displayed an IC50 of 220 nM. On to `CC(Cc1ccc(C#Cc2ccc(Oc3cncnc3)cc2)cc1)NC(=O)C1CC1` (stereo not shown) [Example 23.11], for which it took 1400 nM to reach half-maximal inhibition (IC50). With `CC(=O)NC(C)Cc1ccc(C#Cc2ccc(OCC(C)C)cn2)cc1` (stereo not shown) [Example 23.12] the figure was 650 nM. Regarding `CCOc1ccc(C#Cc2ccc(CC(C)NC(C)=O)cc2)nc1` (stereo not shown) [Example 23.13], half-maximal inhibition (IC50) was put at 450 nM. With `CCCOc1ccc(C#Cc2ccc(C(C)(C)CNC(C)=O)cc2)nc1` [Example 23.14] the figure was 650 nM; with `CC(=O)NC(C)(C)c1ccc(C#Cc2cnc(OC3CCC3)nc2)cc1` [Example 23.15], 21500 nM. The compound `CCCOc1ccc(C#Cc2ccc(CC(C)NC(C)=O)cc2)cc1` (stereo not shown) [Example 24.1, N-{1-Methyl-2-[4-(4-propoxy-phenylethynyl)-phenyl]-ethyl}-acetamide] showed an IC50 of 70 nM. In turn, `CCOc1ccc(C#Cc2ccc(C[C@H](C)NC(C)=O)cc2)cc1` [Example 24.2] had a concentration for half-maximal inhibition (IC50) of 80 nM. With `CC(=O)N[C@@H](C)Cc1ccc(C#Cc2ccc(Oc3ccccc3)nc2)cc1` [Example 24.3] the figure was 170 nM; with `CC(=O)NC(C)Cc1ccc(C#Cc2cnc(OC3CCCC3)nc2)cc1` (stereo not shown) [Example 27.1, N-{2-[4-(2-Cyclopentyloxy-pyrimidin-5-ylethynyl)-phenyl]-1-methyl-ethyl}-acetamide], 200 nM; with `CCOc1ccc(C#Cc2ccc(CC(COC)NC(C)=O)cc2)cc1` (stereo not shown) [Example 27.2], 1200 nM. Next, `CCOc1ccc(C#Cc2ccc(CC(CC)NC(C)=O)cc2)cc1` (stereo not shown) [Example 27.3]: 150 nM. On to `CCOc1ccc(C#Cc2ccc(C(C)NC(=O)OC)cc2)cc1` (stereo not shown) [Example 29.1, {1-[4-(4-Ethoxy-phenylethynyl)-phenyl]ethyl}-carbamic acid methyl ester], for which the IC50 stood at 13100 nM. On to `CCOc1ccc(C#Cc2ccc(CC(C)NC(=O)OC)cc2)cc1` (stereo not shown) [Example 29.2], for which it took 310 nM to reach half-maximal inhibition (IC50). For `CC(=O)NC(C)Cc1ccc(C#Cc2ccc(OCc3nccs3)cc2)cc1` (stereo not shown) [Example 31.1, N-(1-Methyl-2-(4-(4-(thiazol-2-ylmethoxy)-phenylethynyl)-phenyl)-ethyl)-acetamide], the IC50 worked out at 1700 nM. Next, `CC(=O)NC(C)Cc1ccc(C#Cc2ccc(OC3COC3)cc2)cc1` (stereo not shown) [Example 31.2]: 200 nM; `CCCOc1ccc(C#Cc2ccc(C(C)CNC(C)=O)cc2)cc1` (stereo not shown) [Example 32.1, N-{2-[4-(4-Propoxy-phenylethynyl)-phenyl]-propyl}-acetamide]: 70 nM. As to `CCCOc1ccc(C#Cc2ccc(C(C)CNC(=O)C3CC3)cc2)cc1` (stereo not shown) [Example 32.2], the IC50 amounted to 200 nM. `CC(=O)NCC(C)c1ccc(C#Cc2cnc(OC3CCC3)nc2)cc1` (stereo not shown) [Example 32.3] had a half-maximal inhibitory concentration (IC50) of 70 nM. With `CC(CNC(=O)C1CC1)c1ccc(C#Cc2cnc(OC3CCC3)nc2)cc1` (stereo not shown) [Example 32.4] the figure was 810 nM; with `CCCOc1ccc(C#Cc2ccc(C(C)CNC(=O)N(C)C)cc2)cc1` (stereo not shown) [Example 33.1, 1,1-Dimethyl-3-{2-[4-(4-propoxy-phenylethynyl)-phenyl]-propyl}-urea], 160 nM. With `CC(CNC(=O)N(C)C)c1ccc(C#Cc2cnc(OC3CCC3)nc2)cc1` (stereo not shown) [Example 33.2] the figure was 130 nM; with `CCNC(=O)NCC(C)c1ccc(C#Cc2cnc(OC3CCC3)nc2)cc1` (stereo not shown) [Example 33.3], 2300 nM; with `COC(=O)NCC(C)c1ccc(C#Cc2cnc(OC3CCC3)nc2)cc1` (stereo not shown) [Example 33.4], 520 nM. `CCCOc1ccc(C#Cc2ccc(CC(C)(C)NC(C)=O)cc2)cc1` [Example 35.1, N-(1,1-Dimethyl-2-(4-(4-propoxyphenylethynyl)-phenyl)-ethyl)-acetamide] gave an IC50 of 70 nM. The compound `CCCOc1ccc(C#Cc2ccc(CC(C)(C)NC(=O)C3CC3)cc2)cc1` [Example 35.2] yielded an IC50 of 330 nM. Next, `CCOc1ccc(C#Cc2ccc(CCNC(C)=O)cn2)cc1` [Example 35.3]: 26900 nM.
